# Assay results: patent US20050130252A1, “Stabilized susceptibility tests of aerobic pathogens” (Wyeth Holdings Corporation, priority 2003, published 2005)
# Tested on: E. coli ATCC 25922
# Assay: Time-kill assay, fresh vs aged Mueller-Hinton broth
# Assay type: cell-based, Escherichia coli
# Settings: FIG. 1
# Method: Time-kill assays were performed by the broth macrodilution method in accordance with the NCCLS guidelines (NCCLS. 1999. Methods for Determining Bactericidal Activity of Antimicrobial Agents; Approved Guidelines: M26-A, vol. 19. National Committee for Clinical Laboratory Standards, Wayne, Pa.). A starting inoculum of approximately 10^6 CFU/ml and a final concentration of the antibiotic equal to four times the MIC were employed for these assays. Flasks containing 50 ml of MHB II with the appropriate antimicrobial agent were inoculated with […] of the test organism in logarithmic growth phase. Test flasks (250 ml) were incubated with shaking (150 RPM) in a 35° C. water bath. Aliquots were removed for the determination of viable counts at 0, 2, 4, 6 and 24 hours. Serial dilutions were prepared in sterile 0.85% sodium chloride solution. The diluted samples (0.05 ml) were plated onto appropriate agar plates trypticase soy agar (TSA) with a spiral plater (Don Whitley Scientific LTD). The plates were incubated at 35° C. in ambient air for 18-22 hours and the number of colonies were determined on the ProtoCOL plate reader plater (Don Whitley Scientific LTD). Killing curves were constructed by plotting the log10 CFU/ml versus time over 24 hours and the change in bacterial concentration was determined. Data is shown graphically in FIG. 1. Presented in Table 3 are the minimal inhibitory concentration results of the effect of media age, fresh vs. aged and Oxyrase® on the activity of tigecycline.
# To further establish this effect, a time kill experiment was performed with E. coli ATCC 25922 in fresh and aged media at […] and 1 μg/ml of tigecycline, which represents 1×, and 4×MIC of this organism determined in aged media. […]
smiles,measurement,setting,value
"CN(C)c1cc(NC(=O)CNC(C)(C)C)c(O)c2c1C[C@H]1C[C@H]3[C@H](N(C)C)C(O)=C(C(N)=O)C(=O)[C@@]3(O)C(O)=C1C2=O [Tigecycline, tigecycline]","Time kill, growth of E. coli ATCC25922 in aged media","0.12 μg/ml of tigecycline, aged media",regrowth of the strain after 6 h exposure
same,"Time kill, growth of E. coli ATCC25922 in fresh media","0.12 and 1 μg/ml of tigecycline, fresh media",suppressed the growth
same,"Difference in viable growth, fresh vs aged media (time kill kinetics)",E. coli ATCC 25922,> 3 log10
